Source: patent publication US4389408A, “Novel ampicillin esters and production thereof” (priority 1980, dated 1983)
Structures can show the parent of a compound that is named as a salt. Where two headings read alike, the source gives them in different places.

Columns and labels:
[1] = Concentration in blood in oral administration (blood Ampicillin level ratio); format: in vivo, mice (ddy)
Method: Each of the test compounds was orally administered in a dose of 50 mg/kg calculated as Ampicillin to four week old mice (ddy, body weight about 20 g, five per group) which had been caused to fast overnight (the amount is equivalent to 0.2 ml of a 5 mg/ml aqueous solution of Ampicillin). The blood was taken from the experimental animals periodically, and the concentration of Ampicillin in the serum was measured by a bioassay method. The blood Ampicillin level ratio was calculated from the following equation. [formula]

in vitro [2] = format: in vitro ADME; settings: for metabolised at 1 h / metabolised at 2 h / metabolised at 4 h / metabolised at 6 h / metabolised at 20 h: simulated gastric juice, pH 1.2
Method: Each of the test compounds was dissolved to a predetermined concentration in an acidic aqueous medium (simulated gastric juice) having a pH of 1.2 prepared by adding 2.0 g of sodium chloride, 24 ml of 10% hydrochloric acid and 3.2 g of pepsin to 1000 ml of water. While the solution was shaken at 37° C., it was periodically sampled. The sampled solution was subjected to high-speed liquid chromatography using a reversed phase partition column, and the hydrolysis ratio of the compound was determined from a decrease in the peak height of the compound in the chromatogram.

in vitro [3] = format: in vitro ADME; settings: for metabolised at 5 min / metabolised at 10 min / metabolised at 20 min / metabolised at 0.5 h / metabolised at 1 h: simulated intestinal juice, pH 7.5
Method: The procedure of (a) was repeated except that a basic aqueous medium (simulated intestinal juice) having a pH of 7.50 prepared by adding 35.8 g of disodium phosphate, 6.0 ml of 10% hydrochloric acid and 2.8 g of pancreatin to 1000 ml of water was used instead of the acidic aqueous medium.

[4] = Conversion to Ampicillin in 40% mouse blood (bioautography); format: in vitro ADME; settings: 40% mouse blood in pH 7.4 phosphate buffer, 37° C., 10 minutes
Method: The resulting Ampicillin ester hydrochloride was incubated in 40% mouse blood in pH 7.4 phosphate buffer at 37° C. for 10 minutes, and then subjected to bioautography.

in vivo = settings: mouse, mice, aqueous solution
[5] = cited from earlier work

SMILES: Cc1oc(=O)oc1COC(=O)[C@@H]1N2C(=O)[C@@H](NC(=O)[C@H](N)c3ccccc3)[C@H]2SC1(C)C [A, Ampicillin (5-methyl-2-oxo-1,3-dioxolen-4-yl)methyl ester hydrochloride]
- Duration of high Ampicillin concentrations in blood [1]: maintained over a long period of time
- metabolised at 1 h (in vitro [2]): 7%
- metabolised at 2 h (in vitro [2]): 15%
- metabolised at 4 h (in vitro [2]): 20%
- metabolised at 6 h (in vitro [2]): 28%
- metabolised at 20 h (in vitro [2]): 52%
- metabolised at 5 min (in vitro [3]): 16%
- metabolised at 10 min (in vitro [3]): 32%
- metabolised at 20 min (in vitro [3]): 48%
- metabolised at 0.5 h (in vitro [3]): 65%
- metabolised at 1 h (in vitro [3]): 80%
- Conversion to Ampicillin [4]: completely converted to Ampicillin

SMILES: CC1(C)S[C@@H]2[C@H](NC(=O)[C@H](N)c3ccccc3)C(=O)N2[C@H]1C(=O)OC1CCCc2oc(=O)oc21 (stereo partly shown) [Ampicillin (2,3-carbonyldioxy-2-cyclohexenyl)ester hydrochloride]
- Conversion to Ampicillin [4]: completely converted to Ampicillin

SMILES: CC1(C)S[C@@H]2[C@H](NC(=O)[C@H](N)c3ccccc3)C(=O)N2[C@H]1C(=O)OCc1coc(=O)o1 [Ampicillin (2-oxo-1,3-dioxolen-4-yl)methyl ester hydrochloride]
- Conversion to Ampicillin [4]: completely converted to Ampicillin

SMILES: CC1(C)S[C@@H]2[C@H](NC(=O)[C@H](N)c3ccccc3)C(=O)N2[C@H]1C(=O)OCc1oc(=O)oc1-c1ccccc1 [B, Ampicillin (2-oxo-5-phenyl-1,3-dioxolen-4-yl)methyl ester hydrochloride]
- Duration of high Ampicillin concentrations in blood [1]: maintained over a long period of time
- Rate of hydrolysis relative to that of Ampicillin phthalidyl ester (in vitro [2]): about one half
- metabolised at 1 h (in vitro [2]): 9%
- metabolised at 2 h (in vitro [2]): 20%
- metabolised at 4 h (in vitro [2]): 30%
- metabolised at 6 h (in vitro [2]): 35%
- metabolised at 20 h (in vitro [2]): 65%
- Rate of hydrolysis relative to that of Ampicillin phthalidyl ester (in vitro [3]): about one half
- metabolised at 5 min (in vitro [3]): 18%
- metabolised at 10 min (in vitro [3]): 37%
- metabolised at 20 min (in vitro [3]): 53%
- metabolised at 0.5 h (in vitro [3]): 70%
- metabolised at 1 h (in vitro [3]): 90%
- LD50 (in vivo; intravenous): 270 mg/kg
- LD50 (in vivo; ip, intraperitoneal): 1770 mg/kg
- LD50 (in vivo; oral): > 5000 mg/kg
- Conversion to Ampicillin [4]: completely converted to Ampicillin

SMILES: CC1(C)S[C@@H]2[C@H](NC(=O)[C@H](N)c3ccccc3)C(=O)N2[C@H]1C(=O)OC1OC(=O)c2ccccc21 (stereo partly shown) [C, Ampicillin phthalidyl ester hydrochloride, reference compound]
- metabolised at 1 h (in vitro [2]): 18%
- metabolised at 2 h (in vitro [2]): 31%
- metabolised at 4 h (in vitro [2]): 43%
- metabolised at 6 h (in vitro [2]): 55%
- metabolised at 20 h (in vitro [2]): 100%
- metabolised at 5 min (in vitro [3]): 39%
- metabolised at 10 min (in vitro [3]): 61%
- metabolised at 20 min (in vitro [3]): 90%
- metabolised at 0.5 h (in vitro [3]): 95%
- metabolised at 1 h (in vitro [3]): 100%

SMILES: CC(C)(C)C(=O)OCOC(=O)[C@@H]1N2C(=O)[C@@H](NC(=O)[C@H](N)c3ccccc3)[C@H]2SC1(C)C [Pivampicillin, Ampicillin pivaloyloxymethyl ester]
- Blood Ampicillin concentrations in oral vs intramuscular administration ([5]; oral administration, British Pat. Nos. 1,215,812 and 1,364,672): comparable blood Ampicillin concentrations in oral administration to those obtained by intramuscular administration

SMILES: CC1(C)S[C@@H]2[C@H](NC(=O)[C@H](N)c3ccccc3)C(=O)N2[C@H]1C(=O)OC1OC(=O)c2ccccc21 (stereo partly shown) [Talampicillin, Ampicillin phthalidyl ester]
- Blood Ampicillin concentrations in oral vs intramuscular administration ([5]; in vivo, po): comparable blood Ampicillin concentrations in oral administration to those obtained by intramuscular administration
